The numbers were not newly measured in patent US6638431B2, “Formulation and method for treating wetted surface elements in climate control systems” (Mainstream Engineering Corporation, priority 2001, dated 2003), which cites them from elsewhere.

This series concerns Legionella pneumophilia.

The structures appear in SMILES notation.

On to `[Ag]` [Ag, silver], for which the “concentration in water effective against Legionella pneumophilia” value is reported as “about 0.02 ppm”.
